Like-named read-outs stand apart in the source and are kept apart here.
Assays:
SAGPY = experiment: Post-emergence herbicidal action, submerged application; assay type: in vivo, Sagittaria pygmaea
Experimental: (§1) The herbicidal efficacy of the active ingredients or active ingredient mixtures was scored visually by comparing the treated variants with untreated control variants. The damage and development of all aerial plant parts was recorded. Scoring was done on a percentage scale (100% action=all plants dead; 50% action=50% of the plants and green plant parts dead; 0% action=no discernible action=like untreated control plot).
(§2) Seeds or root segments of monocotyledonous and dicotyledonous weeds are placed in sandy loam in pots, covered with soil and grown in the greenhouse under good growth conditions (temperature, atmospheric humidity, water supply). Approximately three weeks after planting, the experimental plants are treated with the compositions according to the invention. In the case of spray application, the compositions according to the invention, which are formulated as wettable powders or emulsion concentrates, are sprayed onto the green plant parts in various dosages with an application rate of 600 to 800 l of water per ha (converted). Immediately to a few days after the application, the test containers are flooded with water up to a depth of 30 mm above the soil surface. In the case of submerged application, in contrast, the soil in the closed test container is already covered with paddy water up to a depth of 30 mm at the time of application. Here, the formulated active ingredients are added directly to the paddy water. After the experimental plants have remained in the greenhouse under optimal growth conditions for a further 3 to 4 weeks, the effect of the preparations is scored visually in comparison with untreated controls. The compositions according to the invention also have an outstanding herbicidal action against a broad spectrum of economically important grass weeds and broad-leaved weeds when applied post-emergence. Frequently, effects of the combinations according to the invention are observed which exceed the formal total of the effects when the herbicides are applied individually. When using suitable low dosages, the values observed in the experiments show an effect of the combinations which exceed the expected values calculated using Colby's formula.
(§3) When applying the combinations according to the invention, herbicidal effects are frequently observed on a harmful plant species which exceed the formal total of the effects of the herbicides present when these are applied by themselves. Alternatively, it is observed in some cases that a lower application rate is required for the herbicide combination in order to achieve the same effect on a harmful plant species in comparison with the individual products.
(§4) A, B=action of component A or B in percent at a dosage of a and b grams of ai/ha, respectively, and
(§5) E=expected value in % at a dosage of a+b grams of ai/ha.
(§6) Examples B.I to B.XVII have been conducted according to method B.2 (post-emergence herbicidal action) as mentioned above, wherein spray application has been applied in case of examples B.I to B.V. Submerged application has been applied in case of examples B.VI bis B.XVII.

SCPJU = experiment: as above; assay type: in vivo, Scirpus juncoides; settings: for pest or weed control at 15 g/ha: dosage 15 g ai/ha
Experimental: as §1, §2, §3, §4, §5, §6

ECHCG = experiment: Post-emergence herbicidal action, spray application; assay type: in vivo, Echinochloa crus galli
Experimental: as §1, §2, §3
A, B=action of component A or B in percent at a dosage of a and b grams of ai/ha, respectively, and […]

SEBEX = experiment: as above; assay type: in vivo, Sesbania exaltata
Experimental: as §1
as §2, with “Frequently, effects of the combinations according to the invention are observed which exceed the formal total of the effects when the herbicides are applied individually.” left out, “formula. […]” for “formula.”

CYPSE = experiment: Post-emergence herbicidal action, submerged application; assay type: in vivo, Cyperus serotinus; settings: Example B.X, dosage 750 g ai/ha
Experimental: as §1
(§7) Seeds or root segments of monocotyledonous and dicotyledonous weeds are placed in sandy loam in pots, covered with soil and grown in the greenhouse under good growth conditions (temperature, atmospheric humidity, water supply). Approximately three weeks after planting, the experimental plants are treated with the compositions according to the invention. […] After the experimental plants have remained in the greenhouse under optimal growth conditions for a further 3 to 4 weeks, the effect of the preparations is scored visually in comparison with untreated controls. […] When using suitable low dosages, the values observed in the experiments show an effect of the combinations which exceed the expected values calculated using Colby's formula. […]

CHEAL = experiment: Post-emergence herbicidal action, spray application; assay type: in vivo, Chenopodium album; settings: Example B.I, dosage 10 g ai/ha
Experimental: as §1, §7

ECHOR = experiment: Post-emergence herbicidal action, submerged application; assay type: in vivo; settings: Example B.XIV, dosage 18.75 g ai/ha
Experimental: as §1, §7

CYPES = experiment: Post-emergence herbicidal action, spray application; assay type: in vivo; settings: Example B.IV, dosage 20 g ai/ha
Experimental: as §1, §7

[1] = Example B.II, dosage 100 g ai/ha
[2] = Example B.VI, submerged application, dosage 75 g ai/ha
[3] = Sagittaria pygmaea, read-out: SAGPY found
[4] = Schoenoplectiella juncoides, read-out: SCPJU found
[5] = Example B.III, dosage 100 g ai/ha
[6] = Example B.V, dosage 500 g ai/ha

Work on `Cc1ccccc1CO[C@@H]1C[C@@]2(C(C)C)CC[C@]1(C)O2` (racemic) [Compound B7.1, cinmethylin] yielded a pest or weed control at 30 g/ha (SAGPY; Sagittaria pygmaea, Example B.IX, submerged application, dosage 30 g ai/ha, read-out: SAGPY found) of 0% and a pest or weed control at 15 g/ha (SCPJU; Schoenoplectiella juncoides, Example B.IX, submerged application, read-out: SCPJU found) of 0%.

With `O=C(O)COc1ccc(Cl)cc1Cl` [Compound B1.1, 2,4-D] the ECHCG found (ECHCG; [1]) was 50% and the SEBEX found (SEBEX; [1]) was 45%.

For `CS(=O)(=O)c1ccc(C(=O)C2=C(Sc3ccccc3)C3CCC(C3)C2=O)c(Cl)c1` (stereo not drawn) [Compound B2.1, benzobicyclon], the SAGPY found (SAGPY; [2]) was 0% and the SCPJU found (SCPJU; [2]) was 30%.

For `Cc1ccc(C(=O)COc2c(C(=O)c3ccc(Cl)c(C)c3Cl)c(C)nn2C)cc1` [Compound B3.1, benzofenap], the pest or weed control at 75 g/ha (SAGPY; Sagittaria pygmaea, Example B.VII, submerged application, dosage 75 g ai/ha, read-out: SAGPY found) was 0% and the pest or weed control at 300 g/ha (SCPJU; Schoenoplectiella juncoides, Example B.VII, submerged application, dosage 300 g ai/ha, read-out: SCPJU found) was 0%.

In the case of `CC(C)Oc1cc(-n2nc(C(C)(C)C)oc2=O)c(Cl)cc1Cl` [Compound B4.2, oxadiazon], the pest or weed control at 175 g/ha (SAGPY; Sagittaria pygmaea, Example B.XV, submerged application, dosage 175 g ai/ha, read-out: SAGPY found) is reported as 0% and the pest or weed control at 22 g/ha (SCPJU; Schoenoplectiella juncoides, Example B.XV, submerged application, dosage 22 g ai/ha, read-out: SCPJU found) is reported as 10%.

`CCN(CC)C(=O)n1cnc(S(=O)(=O)c2c(C)cc(C)cc2C)n1` [Compound B5.1, cafenstrole] was tested, and the pest or weed control at 150 g/ha (SAGPY; [3]) was 0% and the pest or weed control at 75 g/ha (SCPJU; [4]) was 0%.

In the case of `Cc1ccc(NC(=O)NC(C)(C)c2ccccc2)cc1` [Compound B5.2, daimuron], the CYPSE found (CYPSE) is reported as 0% and the pest or weed control at 375 g/ha (SAGPY; Sagittaria pygmaea, Example B.X, submerged application, dosage 375 g ai/ha, read-out: SAGPY found) is reported as 0%.

With `CSC(=O)c1c(C(F)F)nc(C(F)(F)F)c(C(=O)SC)c1CC(C)C` [Compound B5.3, dithiopyr] the pest or weed control at 15 g/ha (SAGPY; Sagittaria pygmaea, Example B.XI, submerged application, dosage 15 g ai/ha, read-out: SAGPY found) was 0% and the pest or weed control at 15 g/ha (SCPJU; Schoenoplectiella juncoides, Example B.XI, submerged application, read-out: SCPJU found) was 0%.

`CCN(C(=O)n1nnn(-c2ccccc2Cl)c1=O)C1CCCCC1` [Compound B5.4, fentrazamide] gave a pest or weed control at 37.5 g/ha (SAGPY; Sagittaria pygmaea, Example B.XIII, submerged application, dosage 37.5 g ai/ha, read-out: SAGPY found) of 0% and a pest or weed control at 75 g/ha (SCPJU; Schoenoplectiella juncoides, Example B.XIII, submerged application, dosage 75 g ai/ha, read-out: SCPJU found) of 0%.

For `CCOC(=O)c1cnn(C)c1S(=O)(=O)NC(=O)Nc1nc(OC)cc(OC)n1` [Compound B6.2, pyrazosulfuron-ethyl], the CHEAL found (CHEAL) was 10%.

For `CO/N=C(/C)c1cccc(Oc2nc(OC)cc(OC)n2)c1C(=O)OC` [Compound B6.3, pyriminobac-methyl], the pest or weed control at 7.5 g/ha (SAGPY; [3]) was 0% and the pest or weed control at 7.5 g/ha (SCPJU; [4]) was 0%.

`CCNc1nc(NC(C)C(C)C)nc(SC)n1` (stereo not drawn) [Compound B8.1, dimethametryn] gave an ECHCG found (ECHCG; [5]) of 25% and an SEBEX found (SEBEX; [5]) of 50%.

Work on `CCOCOc1ccc(C(=O)Nc2cccc(Cl)c2Cl)cc1` [Compound B9.1, etobenzamide] yielded an SAGPY found (SAGPY; Example B.XII, submerged application, dosage 187 g ai/ha) of 0% and an SCPJU found (SCPJU; Example B.XII, submerged application, dosage 375 g ai/ha) of 0%.

`CCC1(CC2(c3cccc(Cl)c3)CO2)C(=O)c2ccccc2C1=O` (stereo not drawn) [Compound B10.1, indanofan] was tested, and the ECHOR found (ECHOR) was 50% and the pest or weed control at 37.5 g/ha (SCPJU; Schoenoplectiella juncoides, Example B.XIV, submerged application, dosage 37.5 g ai/ha, read-out: SCPJU found) was 20%.

`COc1cc(OC)nc(Sc2cccc3c2C(=O)OC3C)n1` (stereo not drawn) [Compound B12.1, pyriftalide] showed a pest or weed control at 50 g/ha (SAGPY; Sagittaria pygmaea, Example B.XVI, submerged application, dosage 50 g ai/ha, read-out: SAGPY found) of 0% and a pest or weed control at 100 g/ha (SCPJU; Schoenoplectiella juncoides, Example B.XVI, submerged application, dosage 100 g ai/ha, read-out: SCPJU found) of 0%.

`CCCC(=NOCC(C)Oc1ccc(Cl)cc1)C1=C(O)CC(C2CCCSC2)CC1=O` (stereo not drawn) [Compound B13.1, profoxydim] was tested, and the CYPES found (CYPES) was 0% and the ECHCG found (ECHCG; Example B.IV, dosage 20 g ai/ha) was 30%.

For `NC1=C(Cl)C(=O)c2ccccc2C1=O` [Compound B14.1, quinoclamine], the ECHCG found (ECHCG; [6]) was 0% and the SEBEX found (SEBEX; [6]) was 0%.

Reference: patent US6809064B2, “Synergistic herbicidal compositions comprising herbicides from the benzoylcyclohexanedione group for use in rice crops” (Aventis CropScience GmbH, priority 2001, dated 2004)
